Assay results taken from patent US9701670B2, “Pyrazolyl-ureas as kinase inhibitors” (RESPIVERT LIMITED, priority 2013, dated 2017).

Columns and labels:
[1] = tested on: Differentiated U937 cells; assay: (l) Cell viability: MTT assay; assay type: cell-based, human; conditions: 1 μg/mL
How it was run: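 MTT read-out (1 h, absorbance 550 nm) on d-U937 cells after pre-incubation with 1 or 10 μg/mL compound under two regimes: 4 h, 5% FCS, or 24 h, 10% FCS RPMI1640. Values are percent loss of viability relative to vehicle (0.5% DMSO), so increases are reported as negative.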

[2] = molecular target: p38 MAPKα isoform (MAPK14) (Homo sapiens (Human), UniProt Q16539); assay: p38 MAPKα enzyme inhibition (FRET, Z-LYTE), Method 1; assay type: biochemical; conditions: Method 1 (Table 4a1)
Chain of p38 MAPKα isoform (MAPK14) (Q16539 whole entry, canonical isoform): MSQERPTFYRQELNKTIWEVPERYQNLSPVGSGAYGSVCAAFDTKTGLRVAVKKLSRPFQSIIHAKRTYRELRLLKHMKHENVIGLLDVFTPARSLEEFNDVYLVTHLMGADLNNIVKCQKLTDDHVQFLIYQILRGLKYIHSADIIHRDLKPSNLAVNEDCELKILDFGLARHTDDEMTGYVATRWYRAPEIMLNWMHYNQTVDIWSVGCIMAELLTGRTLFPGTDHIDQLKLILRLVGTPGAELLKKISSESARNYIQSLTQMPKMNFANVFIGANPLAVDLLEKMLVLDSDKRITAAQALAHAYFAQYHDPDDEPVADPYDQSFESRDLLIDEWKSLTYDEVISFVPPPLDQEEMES

Row | SMILES | Cell viability at time point in d-U937 cells 4 h [1] | Cell viability at time point in d-U937 cells 24 h [1] | IC50 [2]
1 | COCCOc1cccc(-n2nc(C(C)(C)C)cc2NC(=O)Nc2ccc(Oc3ccnc(Nc4cc(OC)cc(C(=O)NCCN5CCOCC5)c4)n3)c3ccccc23)c1 [Example 55, 3-((4-((4-(3-(3-(tert-butyl)-1-(3-(2-methoxyethoxy)phenyl)-1H-pyrazol-5-yl)ureido)naphthalen-1-yl)oxy)pyrimidin-2-yl)amino)-5-methoxy-N-(2-morpholinoethyl)benzamide] | −ve (−ve and +ve indicate that the value is below and above respectively, the no significant effect threshold, defined as 30% inhibition at 1 μg/mL at the time point indicated.) | −ve (−ve and +ve indicate that the value is below and above respectively, the no significant effect threshold, defined as 30% inhibition at 1 μg/mL at the time point indicated.) | 9 nM
2 | COc1cc(C(=O)NCCN(C)C)ccc1Nc1nccc(Oc2ccc(NC(=O)Nc3cc(C(C)C)nn3-c3ccc(C)cc3)c3ccccc23)n1 [Example 35, N-(2-(dimethylamino)ethyl)-4-((4-((4-(3-(3-isopropyl-1-(p-tolyl)-1H-pyrazol-5-yl)ureido)naphthalen-1-yl)oxy)pyrimidin-2-yl)amino)-3-methoxybenzamide] | −ve (−ve and +ve indicate that the value is below and above respectively, the no significant effect threshold, defined as 30% inhibition at 1 μg/mL at the time point indicated.) | −ve (−ve and +ve indicate that the value is below and above respectively, the no significant effect threshold, defined as 30% inhibition at 1 μg/mL at the time point indicated.) | < 1 nM
3 | COc1ccc(-n2nc(C(C)C)cc2NC(=O)Nc2ccc(Oc3ccnc(Nc4cc(OC)cc(C(=O)NCCO)c4)n3)c3ccccc23)cc1 [Example 65, N-(2-hydroxyethyl)-3-((4-((4-(3-(3-isopropyl-1-(4-methoxyphenyl)-1H-pyrazol-5-yl)ureido)naphthalen-1-yl)oxy)pyrimidin-2-yl)amino)-5-methoxybenzamide] | −ve (−ve and +ve indicate that the value is below and above respectively, the no significant effect threshold, defined as 30% inhibition at 1 μg/mL at the time point indicated.) | −ve (−ve and +ve indicate that the value is below and above respectively, the no significant effect threshold, defined as 30% inhibition at 1 μg/mL at the time point indicated.) | 23 nM
4 | COc1cc(Nc2nccc(Oc3ccc(NC(=O)Nc4cc(C5(C)CC5)nn4-c4ccc(C)cc4)c4ccccc34)n2)cc(C(=O)NCCN2CCOCC2)c1 [Example 51, 3-methoxy-5-((4-((4-(3-(3-(1-methylcyclopropyl)-1-(p-tolyl)-1H-pyrazol-5-yl)ureido)naphthalen-1-yl)oxy)pyrimidin-2-yl)amino)-N-(2-morpholinoethyl)benzamide] | −ve (−ve and +ve indicate that the value is below and above respectively, the no significant effect threshold, defined as 30% inhibition at 1 μg/mL at the time point indicated.) | −ve (−ve and +ve indicate that the value is below and above respectively, the no significant effect threshold, defined as 30% inhibition at 1 μg/mL at the time point indicated.) | 15 nM
5 | COc1ccc(-n2nc(C(C)C)cc2NC(=O)Nc2ccc(Oc3ccnc(Nc4cc(OC)cc(C(=O)NCCN5CCOCC5)c4)c3)c3ccccc23)cc1 [Example 15, 3-((4-((4-(3-(3-isopropyl-1-(4-methoxyphenyl)-1H-pyrazol-5-yl)ureido)naphthalen-1-yl)oxy)pyridin-2-yl)amino)-5-methoxy-N-(2-morpholinoethyl)benzamide] | −ve (−ve and +ve indicate that the value is below and above respectively, the no significant effect threshold, defined as 30% inhibition at 1 μg/mL at the time point indicated.) | −ve (−ve and +ve indicate that the value is below and above respectively, the no significant effect threshold, defined as 30% inhibition at 1 μg/mL at the time point indicated.) | 7 nM
6 | COc1ccc(-n2nc(C3CCOC3)cc2NC(=O)Nc2ccc(Oc3ccnc(Nc4cc(OC)cc(C(=O)NCCN5CCOCC5)c4)n3)c3ccccc23)cc1 (stereo not drawn) [Example 59, 3-methoxy-5-((4-((4-(3-(1-(4-methoxyphenyl)-3-(tetrahydrofuran-3-yl)-1H-pyrazol-5-yl)ureido)naphthalen-1-yl)oxy)pyrimidin-2-yl)amino)-N-(2-morpholinoethyl)benzamide] | −ve (−ve and +ve indicate that the value is below and above respectively, the no significant effect threshold, defined as 30% inhibition at 1 μg/mL at the time point indicated.) | −ve (−ve and +ve indicate that the value is below and above respectively, the no significant effect threshold, defined as 30% inhibition at 1 μg/mL at the time point indicated.) | 2 nM
7 | COc1cc(C(=O)NCCO)ccc1Nc1nccc(Oc2ccc(NC(=O)Nc3cc(C(C)C)nn3-c3ccc(C)cc3)c3ccccc23)n1 [Example 39, N-(2-hydroxyethyl)-4-((4-((4-(3-(3-isopropyl-1-(p-tolyl)-1H-pyrazol-5-yl)ureido)naphthalen-1-yl)oxy)pyrimidin-2-yl)amino)-3-methoxybenzamide] | −ve (−ve and +ve indicate that the value is below and above respectively, the no significant effect threshold, defined as 30% inhibition at 1 μg/mL at the time point indicated.) | −ve (−ve and +ve indicate that the value is below and above respectively, the no significant effect threshold, defined as 30% inhibition at 1 μg/mL at the time point indicated.) | 7 nM
8 | Cc1ccc(-n2nc(C3(C)COC3)cc2NC(=O)Nc2ccc(Oc3ccnc(Nc4cccc(C(=O)NCCN5CCOCC5)c4)n3)c3ccccc23)cc1 [Example 22, 3-((4-((4-(3-(3-(3-methyloxetan-3-yl)-1-(p-tolyl)-1H-pyrazol-5-yl)ureido)naphthalen-1-yl)oxy)pyrimidin-2-yl)amino)-N-(2-morpholinoethyl)benzamide] | −ve (−ve and +ve indicate that the value is below and above respectively, the no significant effect threshold, defined as 30% inhibition at 1 μg/mL at the time point indicated.) | −ve (−ve and +ve indicate that the value is below and above respectively, the no significant effect threshold, defined as 30% inhibition at 1 μg/mL at the time point indicated.) | < 1 nM
9 | Cc1ccc(-n2nc(C(C)(C)C)cc2NC(=O)Nc2ccc(Oc3ccnc(Nc4cccc(C(=O)N(C)C)c4)n3)c3ccccc23)cc1 [Example 26, 3-((4-((4-(3-(3-(tert-butyl)-1-(p-tolyl)-1H-pyrazol-5-yl)ureido)naphthalen-1-yl)oxy)pyrimidin-2-yl)amino)-N,N-dimethylbenzamide] | −ve (−ve and +ve indicate that the value is below and above respectively, the no significant effect threshold, defined as 30% inhibition at 1 μg/mL at the time point indicated.) | −ve (−ve and +ve indicate that the value is below and above respectively, the no significant effect threshold, defined as 30% inhibition at 1 μg/mL at the time point indicated.) | 12 nM
